Patent publication US20030100550A1, “Carboxamide diazepin derivatives, preparation method, use as medicines, pharmaceutical compositions and use thereof” (priority 2002, published 2003)

Assays:
[1] = target: T1, Cathepsin K (Homo sapiens, UniProt P43235); assay: Study of Cathepsin K inhibition (fluorescence, Z-Val-arg-AMC); format: biochemical; settings: substrate Z-Val-arg-AMC 20 μM, enzyme 5 ng/ml, 2H at ambient temperature; read-out: Cathepsin K IC50
T1 sequence (P43235 115-329): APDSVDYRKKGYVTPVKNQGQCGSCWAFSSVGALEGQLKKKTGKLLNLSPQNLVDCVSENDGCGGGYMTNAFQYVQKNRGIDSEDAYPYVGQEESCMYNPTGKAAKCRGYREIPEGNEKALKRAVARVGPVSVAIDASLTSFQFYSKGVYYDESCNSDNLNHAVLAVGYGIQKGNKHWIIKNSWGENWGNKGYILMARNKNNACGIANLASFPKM
Procedure: Study of Cathepsin K Inhibition:
(§1) The products to be tested (10 mM) are diluted to […] in DMSO and distributed into Nunc polystyrene 96 well plates at a rate of 2 μl per well. Column 12 of the plate is reserved for the controls and therefore receives […] of DMSO (without products) per well. The plates are stored at −80° C. and thawed on the day of the experiment.
(§2) The products are diluted to 50 μM by adding 38 μl of reaction buffer: sodium acetate 100 mM, EDTA 5 mM, DTT […] pH 5.5. The addition as well as all the operations by pipette are carried out with a CybiWell 96 tip pipette. After mixing the solutions, each product is transferred into 2 wells (duplicates) of a Greiner black 384 well plate at a rate of 10 μl per well. Two 96-well plates can therefore be tested in a 384-well plate.
(§3) A solution of substrate at 50 μM, Z-Val-arg-AMC (Calbiochem), is prepared in the reaction buffer. The substrate, is then distributed into all the wells of the 384-well plate (20 μl per well).
(§4) A solution of Cathepsin K at 12.5 ng/ml is prepared in the reaction buffer and distributed into all the wells of the 384-well plate (20 μl per well) except for the 16 wells serving as 100% inhibition controls (column 23 and 24, lines I to P) which receive 20 μl of enzyme-free buffer.
(§5) The plates are then incubated 2H at ambient temperature, then read on Fluoroskan (Labsystems): excitation 390 nm; emission 460 nm
(§6) The final concentrations of each of the reagents are: products 10 μM, substrate 20 μM, enzyme 5 ng/ml.
(§7) The % inhibition for each of the products is calculated by using points at 0 and 100% inhibition of each plate as references. The products presenting a significant inhibition are then retested on a range of concentrations from 50 to 0.5 μM to determine an IC50.

[2] = target: T2, Cathepsin B (Homo sapiens, UniProt P07858); assay: Study of Cathepsin B inhibition (fluorescence, Z-arg-arg-AMC); format: biochemical; settings: for IC50: substrate Z-arg-arg-AMC 20 μM, enzyme 16 ng/ml, 1 hour at ambient temperature
T2 construct: purchased Calbiochem
Procedure: as §1, §2, §3, §4, §5, §6, §7
Study of Cathepsin B Inhibition:
Protocol identical to that of Cathepsin K except for:
Z-arg-arg-AMC substrate (Calbiochem), solution at 50 μM, final concentration 20 μM
Cathepsin B (Calbiochem), solution at 40 ng/ml, final concentration 16 ng/ml
Incubation for 1 hour at ambient temperature

SMILES	IC50 [1] [µM]	IC50 [2] [µM]	Cathepsin B, percentage in parentheses beside IC50 value (% inhibition) ([2]; printed beside 20 μM, meaning not explained) [%]
C[C@H](NC(=O)[C@@H]1CCCN2C(=O)CC[C@H](NS(=O)(=O)c3ccc(C(F)(F)F)cc3)C(=O)N12)C(=O)COC(=O)c1c(Cl)cccc1Cl [Example 481, 9-[(9S)-[[4-(trifluoromethyl)phenyl]sulphonyl]amino]-N-[(2S)-4-[(2,6-dichlorobenzoyl)oxy]-3-oxo-2-butyl]-octahydro-6,10-dioxo-6H-(1S)-pyridazino[1,2-a][1,2]diazepine-1-carboxamide]		6	
CC(C)C[C@H](NC(=O)[C@@H]1CCCN2C(=O)CC[C@H](NS(=O)(=O)c3ccc(C(F)(F)F)cc3)C(=O)N12)C(=O)COC(=O)c1c(Cl)cccc1Cl [Example 313, 9-[(9S)-[[[4-(trifluoromethyl)phenyl]sulphonyl]amino]]-N-[(3S)-5-methyl-1-[(2,6-dichlorobenzoyl)oxy]-2-oxo-3-hexyl]-octahydro-6,10-dioxo-6H-(1S)-pyridazino[1,2-a][1,2]diazepine-1-carboxamide]		5	
CC(C)C[C@H](NC(=O)[C@@H]1CCCN2C(=O)CC[C@H](NS(C)(=O)=O)C(=O)N12)C(=O)COC(=O)c1c(Cl)cccc1Cl [Example 304, 9-[(9S)-(methylsulphonyl)amino]-N-[(3S)-5-methyl-1-[(2,6-dichlorobenzoyl)oxy]-2-oxo-3-hexyl]-octahydro-6,10-dioxo-6H-(1S)-pyridazino[1,2-a][1,2]diazepine-1-carboxamide]	12	1.5	
C[C@H](NC(=O)[C@@H]1CCCN2C(=O)CC[C@H](NC(=O)Nc3ccc(Oc4ccccc4)cc3)C(=O)N12)C(=O)COC(=O)c1c(Cl)cccc1Cl [Example 453, 9-[(9S)-[[(4-phenoxyphenyl)amino]carbonyl]amino]-N-[(2S)-4-[(2,6-dichlorobenzoyl)oxy]-3-oxo-2-butyl]-octahydro-6,10-dioxo-6H-(1S)-pyridazino[1,2-a][1,2]diazepine-1-carboxamide]	20	9	
C=CCOC(=O)CC[C@H](NC(=O)[C@@H]1CCCN2C(=O)CC[C@H](NC(=O)c3ccco3)C(=O)N12)C(=O)COC(=O)c1c(Cl)cccc1Cl [Example 91, (2-propenyl)(4S)6-[(2,6-dichlorobenzoyl)oxy]-4-[[[(1S,9S)-9-[[(2-furanyl)carbonyl]amino]-octahydro-6,10-dioxo-6H-pyridazino[1,2-a][1,2]diazepine-1-yl]carbonyl]amino]-5-oxo-hexanoate]	6	< 0.2	
CC(C)C[C@H](NC(=O)[C@@H]1CCCN2C(=O)CC[C@H](NS(=O)(=O)c3ccc(C(F)(F)F)cc3)C(=O)N12)C(=O)C=[N+]=[N-] [Example 347, 9-[(9S)-[[4-(trifluoromethyl)phenyl]sulphonyl]amino]-N-((3S)-1-diazo-5-methyl-2-oxo-3-hexyl)-octahydro-6,10-dioxo-6H-(1S)-pyridazino[1,2-a][1,2]diazepine-1-carboxamide]	12		25
COc1cccc(C(=O)N[C@H]2CCC(=O)N3CCC[C@@H](C(=O)N[C@@H](C)C(=O)COC(=O)c4c(Cl)cccc4Cl)N3C2=O)c1 [Example 463, 9-[(9S)-(3-methoxybenzoyl)amino]-N-[(2S)-4-[(2,6-dichlorobenzoyl)oxy]-3-oxo-2-butyl]-octahydro-6,10-dioxo-6H-(1S)-pyridazino[1,2-a][1,2]diazepine-1-carboxamide]		1.5	
C=CCOC(=O)CC[C@H](NC(=O)[C@@H]1CCCN2C(=O)CC[C@H](NS(=O)(=O)c3ccc(C(F)(F)F)cc3)C(=O)N12)C(=O)COC(=O)c1c(Cl)cccc1Cl [Example 101, (2-propenyl)(4S)6-[(2,6-dichlorobenzoyl)oxy]-4-[[[(1S,9S)-9-[[[4-(trifluoromethyl)phenyl]sulphonyl]amino]-octahydro-6,10-dioxo-6H-pyridazino[1,2-a][1,2]diazepine-1-yl]carbonyl]amino]-5-oxo-hexanoate]		6	
COc1cccc(C(=O)N[C@H]2CCC(=O)N3CCC[C@@H](C(=O)N[C@@H](CC(C)C)C(=O)C=[N+]=[N-])N3C2=O)c1 [Example 340, 9-[(9S)-(3-methoxybenzoyl)amino]-N-((3S)-1-diazo-5-methyl-2-oxo-3-hexyl)-octahydro-6,10-dioxo-6H-(1S)-pyridazino[1,2-a][1,2]diazepine-1-carboxamide]	7		

Second part, the compound after the results:

IC50 [1] [µM]	IC50 [2] [µM]	Cathepsin B, percentage in parentheses beside IC50 value (% inhibition) ([2]; printed beside 20 μM, meaning not explained) [%]	SMILES
20	18		CS(=O)(=O)N[C@H]1CCC(=O)N2CCC[C@@H](C(=O)N[C@@H](Cc3ccccc3)C(=O)COC(=O)c3c(Cl)cccc3Cl)N2C1=O [Example 234, 9-[(9S)-(methylsulphonyl)amino]-N-[(2S)-1-phenyl-4-[(-2,6-dichlorobenzoyl)oxy]-3-oxo-2-butyl]-octahydro-6,10-dioxo-6H-(1S)-pyridazino[1,2-a][1,2]diazepine-1-carboxamide]
20	4		C[C@H](NC(=O)[C@@H]1CCCN2C(=O)CC[C@H](NC(=O)NC3CCCCC3)C(=O)N12)C(=O)COC(=O)c1c(Cl)cccc1Cl [Example 433, 9-[(9S)-[(cyclohexylamino)carbonyl]amino]-N-[(2S)-4-[(2,6-dichlorobenzoyl)oxy]-3-oxo-2-butyl]-octahydro-6,10-dioxo-6H-(1S)-pyridazino[1,2-a][1,2]diazepine-1-carboxamide]
	5		C[C@H](NC(=O)[C@@H]1CCCN2C(=O)CC[C@H](NC(=O)c3ccco3)C(=O)N12)C(=O)COC(=O)c1c(Cl)cccc1Cl [Example 443, 9-[(9S)-[(2-furanyl)carbonyl]amino]-N-[(2S)-4-[(2,6-dichlorobenzoyl)oxy]-3-oxo-2-butyl]-octahydro-6,10-dioxo-6H-(1S)-pyridazino[1,2-a][1,2]diazepine-1-carboxamide]
20	1.5		C[C@H](NC(=O)[C@@H]1CCCN2C(=O)CC[C@H](NC(=O)NCCc3cccs3)C(=O)N12)C(=O)COC(=O)c1c(Cl)cccc1Cl [Example 473, 9-[(9S)-[[[2-(thien-2-yl)-ethyl]amino]carbonyl]amino]-N-[(2S)-4-[(2,6-dichlorobenzoyl)oxy]-3-oxo-2-butyl]-octahydro-6,10-dioxo-6H-(1S)-pyridazino[1,2-a][1,2]diazepine-1-carboxamide]
20	18		O=C(N[C@H]1CCC(=O)N2CCC[C@@H](C(=O)N[C@@H](Cc3ccccc3)C(=O)COC(=O)c3c(Cl)cccc3Cl)N2C1=O)c1ccco1 [Example 192, 9-[(9S)-[(2-furanyl)carbonyl]amino]-N-[(2S)-4-[(2,6-dichlorobenzoyl)oxy]-1-phenyl-3-oxo-2-butyl]-octahydro-6,10-dioxo-6H-(1S)-pyridazino[1,2-a][1,2]diazepine-1-carboxamide]
20	18		O=C(NCCc1cccs1)N[C@H]1CCC(=O)N2CCC[C@@H](C(=O)N[C@@H](Cc3ccccc3)C(=O)CN3CCN(CC(=O)N4CCCC4)CC3)N2C1=O [Example 229]
	7		COc1cccc(C(=O)N[C@H]2CCC(=O)N3CCC[C@@H](C(=O)N[C@@H](Cc4ccccc4)C(=O)COC(=O)c4c(Cl)cccc4Cl)N3C2=O)c1 [Example 185, 9-[(9S)-(3-methoxybenzoyl)amino]-N-((2S)-4-[(2,6-dichlorobenzoyl)oxy]-1-phenyl-3-oxo-2-butyl]-octahydro-6,10-dioxo-6H-(1S)-pyridazino[1,2-a][1,2]diazepine-1-carboxamide]
